Results published in patent publication US6875847B1, “Linoleate and linolenate-lipoxygenase mutants” (Institut fur Pflanzenbiochemie IPE, priority 1999, dated 2005).

Biological target: T1, Cucumis sativus (cucumber) lipid body lipoxygenase (cslbLOX, 13-LOX), wild type, X92890, FIG. 5 (Cucumis sativus, UniProt Q42710)
T1 sequence (Q42710 1-878): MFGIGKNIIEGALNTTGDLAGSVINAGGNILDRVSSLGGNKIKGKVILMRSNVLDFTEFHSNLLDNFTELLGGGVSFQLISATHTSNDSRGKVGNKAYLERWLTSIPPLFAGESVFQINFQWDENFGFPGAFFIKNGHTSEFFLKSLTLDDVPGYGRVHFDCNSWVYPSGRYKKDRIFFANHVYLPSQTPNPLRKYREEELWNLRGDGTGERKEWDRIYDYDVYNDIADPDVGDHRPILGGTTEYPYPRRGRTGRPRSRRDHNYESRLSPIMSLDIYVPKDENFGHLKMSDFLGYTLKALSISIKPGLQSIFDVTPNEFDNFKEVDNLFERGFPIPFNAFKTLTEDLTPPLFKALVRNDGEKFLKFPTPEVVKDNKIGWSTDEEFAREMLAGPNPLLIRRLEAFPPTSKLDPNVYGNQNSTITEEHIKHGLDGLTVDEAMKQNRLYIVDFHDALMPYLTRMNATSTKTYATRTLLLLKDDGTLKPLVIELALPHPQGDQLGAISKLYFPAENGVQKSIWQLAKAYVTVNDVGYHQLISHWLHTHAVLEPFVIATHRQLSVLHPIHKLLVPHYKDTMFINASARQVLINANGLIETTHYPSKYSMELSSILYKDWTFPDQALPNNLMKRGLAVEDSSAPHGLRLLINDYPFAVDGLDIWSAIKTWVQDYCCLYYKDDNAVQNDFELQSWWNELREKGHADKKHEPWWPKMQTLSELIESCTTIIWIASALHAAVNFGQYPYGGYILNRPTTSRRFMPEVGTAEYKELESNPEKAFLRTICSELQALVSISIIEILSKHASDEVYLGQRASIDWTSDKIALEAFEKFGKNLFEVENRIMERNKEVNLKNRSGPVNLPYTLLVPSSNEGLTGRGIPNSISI
Assay: Kinetic characterization of wild-type LOX (13-LOX) with LA
Assay type: biochemical
Settings: 23 points measured between 100 μM and 250 μM LA
Procedure: For the bacterial expression of wild-type LOX and for directed mutagenesis the plasmid pQE-30 (Qiagen, Hilden, Germany), which contained the cDNA of the LOX from lipid bodies of cucumber cotyledons as an insert (LOXpQE 30: cf. Feussner, I., Bachmann, A., Höhne, M. & Kindl, H. (1998) FEBS Lett. 431, 433-436) was used. The mutagenesis was carried out with the aid of the QuikChange Mutagenesis Kit from Stratagene (Heidelberg, Germany). Oligonucleotides with the appropriate base exchanges were obtained from MWG-Biotech (Ebersberg, Germany). For the analysis of the mutations further conservative base exchange was initiated in order to create new restriction division sites or to delete existing ones. In addition all the mutations were sequenced and at least three different bacterial clones expressed and used for the investigation of enzymatic properties. The expression of LOXpQE-30 and all the mutations was carried out according to Feussner, I., Bachmann, A., Höhne, M. & Kindl, H. (1998) FEBS Left. 431, 433-436. Cells from 1-liter cultures were resuspended in 5 to 7 ml lysis buffer and with the aid of an ultrasound needle broken up with pulses each of 30 seconds, and the cell debris made into pellets. The affinity purification of the polyHis-extended LOX was carried out as previously described (cf. Feussner, I., Bachmann, A., Höhne, M. & Kindl, H. (1998) FEBS Lett. 431, 433436).

Km: 115 µM
LA turnover at Vmax condition (substrate saturation): 12 s⁻¹
Structure (SMILES): CCCCC/C=C\C/C=C\CCCCCCCC(=O)O [LA, linoleic acid]
